One assay has as its system Leishmania major. Conditions: Leishmania major infection; cited from earlier work.
The subject of assay [1] is IDO1 expressed in mouse tumor cells. The settings on record: pre-immunized mice; Uyttenhove et al.; cited from earlier work.
A further assay concerns influenza virus. The settings on record: influenza virus-infected mice; cited from earlier work.
Another assay deals with lung carcinoma. The settings on record: syngeneic mouse lung carcinoma model and transgenic mouse model; cited from earlier work.
Assay [2] has as its system melanoma and glioblastoma. The settings on record: mouse tumor models for melanoma and glioblastoma; cited from earlier work.
Assay [3] deals with T1, IDO1 (Homo sapiens, UniProt P14902). Description: Cell-based assay for IDO1 in interferon-γ stimulated A-375 melanoma cells. Conditions: interferon-γ stimulation, 48 hours, read-out: IC50, cell-based IDO1 (NFK levels). On the procedure:
The biological activity of IDO1 inhibitors can be measured by applying above detection methods to cells that are treated with test compound. The expression of IDO1 can be induced in many different cell lines by stimulation with IFNγ (Takikawa, O., et al., J. Biol. Chem. 263: 2041; 1988; Seegers, et al.), or IDO1 can be expressed in cells that lack endogenous IDO1 by transfection of an expression vector containing IDO1 cDNA.
A-375 melanoma cells were purchased from LGC Standards GmbH (Wesel, Germany) and cultured in DMEM tissue culture medium (Life Technologies, Bleiswijk, The Netherlands), supplemented with 10% (v/v) bovine calf serum. Compounds were dissolved in DMSO and diluted in DMEM. Final DMSO concentration in the assay was 0.4% (v/v). Eight thousand cells per well in 35 μl were seeded in a black 384-well tissue plate (cat. No. 781086; Greiner Bio-One GmbH, Frickenhausen, Germany) and allowed to adhere by incubation at 37° C., 95% humidity, and 5% CO2 overnight. Then, 5 μl of compound solution was added to the cells 1 hour prior to stimulation with 5 μl of 500 ng/ml interferon-γ (R&D Systems, Minneapolis, Minn., USA) diluted in DMEM medium. At the same time, 5 μl of L-tryptophan in 20 mM Hepes buffer pH 7.4 was added. Incubation was continued for 48 hours. To determine NFK levels, 12 μl NFK Green™ (NTRC, Oss, The Netherlands) was added to each well, and the plate was sealed and incubated for 4 hours at 37° C. Fluorescence was measured on an EnVision multimode reader (Perkin Elmer, Waltham, Mass., USA). IC50 were calculated using XLfit™ software (ID Business Solutions, Ltd., Surrey, U.K.).

Assay [4] addresses T1, IDO1. Description: Biochemical IDO1 assay (NFK GreenScreen). More on the design: Recombinant full-length IDO1 (Seegers, N., et al.) and all other assay components were diluted in IDO1 reaction buffer; made in house. The settings on record: recombinant full-length IDO1 25 nM, L-tryptophan 100 μM, NFK Green detection; read-out: IC50, inhibitory potency on IDO1. The essentials: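 Recombinant full-length IDO1 in 50 mM NaH2PO4 pH 7.0 with 0.05% Tween-20 and 1% glycerol converted 100 μM L-tryptophan (final) over 60 min at room temperature with compound, 0.3% DMSO.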

A further assay concerns the target TDO (Homo sapiens, UniProt P48775). Conditions: read-out: KM,Trp of TDO for L-tryptophan; cited from earlier work.
Assay [5] addresses T1, IDO1. More on the design: Recombinant full-length IDO1 (Seegers, N., et al.) and all other assay components were diluted in IDO1 reaction buffer; made in house. Conditions: read-out: KM,Trp of IDO1 for L-tryptophan; cited from earlier work.
For assay [6], the target named is tryptophan 2,3-dioxygenase (TDO) (Homo sapiens, UniProt P48775). Conditions: Seegers et al. 2014; cited from earlier work.
Another assay concerns melanoma. The settings on record: Yue et al. 2009; cited from earlier work.

SMILES strings stand for the structures. Bounds are passed on as bounds.

The values below come from US10494360B2, “Inhibitors of indoleamine 2,3-dioxygenase” (NETHERLANDS TRANSLATIONAL RESEARCH CENTER B.V., priority 2016, dated 2019).

As a reminder, the IC50 is the concentration needed to halve the response being measured. Broadly, the Km is the substrate concentration at which the rate is half of its maximum.

T1 sequence (P14902 whole entry, species assumed): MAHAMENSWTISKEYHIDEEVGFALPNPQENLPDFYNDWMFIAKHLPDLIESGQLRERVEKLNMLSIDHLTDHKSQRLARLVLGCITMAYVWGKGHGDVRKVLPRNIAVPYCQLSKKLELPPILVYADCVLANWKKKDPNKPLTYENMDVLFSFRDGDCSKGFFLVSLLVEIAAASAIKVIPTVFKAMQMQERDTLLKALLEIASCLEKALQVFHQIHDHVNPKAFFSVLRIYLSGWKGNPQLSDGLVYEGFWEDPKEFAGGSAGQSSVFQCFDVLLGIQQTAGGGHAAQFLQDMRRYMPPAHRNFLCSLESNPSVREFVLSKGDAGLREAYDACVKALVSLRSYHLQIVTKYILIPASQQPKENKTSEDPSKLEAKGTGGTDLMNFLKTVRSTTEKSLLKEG
TDO, sequence (P48775 whole entry, species assumed): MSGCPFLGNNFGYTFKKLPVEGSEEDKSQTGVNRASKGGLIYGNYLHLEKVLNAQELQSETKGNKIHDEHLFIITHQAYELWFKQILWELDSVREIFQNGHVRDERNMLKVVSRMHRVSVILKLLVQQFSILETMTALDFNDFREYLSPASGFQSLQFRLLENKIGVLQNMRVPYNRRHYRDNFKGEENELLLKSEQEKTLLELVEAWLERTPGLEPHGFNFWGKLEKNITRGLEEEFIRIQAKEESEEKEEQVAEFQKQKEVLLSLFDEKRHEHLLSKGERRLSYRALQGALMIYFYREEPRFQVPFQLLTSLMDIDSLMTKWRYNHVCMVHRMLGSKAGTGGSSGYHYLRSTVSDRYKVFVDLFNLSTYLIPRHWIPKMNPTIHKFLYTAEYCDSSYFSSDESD
tryptophan 2,3-dioxygenase (TDO), sequence (P48775 whole entry, species assumed): as above

As to `Cn1cc(C[C@H](N)C(=O)O)c2ccccc21` [Example 1-MT, 1-methyl-L-tryptophan], in the assay on Leishmania major, the parasite burden result was “reduced the parasite burden”. The “reversal of IDO1-mediated prevention of tumor cell rejection” value in assay [1] is reported as “this effect could be reverted”. Further, the “T cell response against influenza virus” value in the assay on influenza virus is on record as “enhanced T cell response against the virus”. The “efficacy of a cancer vaccine in combination” value in the assay with lung carcinoma was “increased the efficacy of a cancer vaccine”. The “efficacy of PD-1 and CTLA4 antibodies in combination” value in assay [2] was “increased the efficacy of antibodies targeting the immune checkpoints PD-1 and CTLA4”.

Turning to `Cc1cc(F)c(C(=O)N2CC(=O)N(O)C2c2cccc(Br)c2)c(F)c1` (centres unmarked) [Example 116, 2-(3-Bromophenyl)-1-(2,6-difluoro-4-methyl-benzoyl)-3-hydroxy-imidazolidin-4-one], the concentration for half-maximal inhibition (IC50) was less than 5000 nM on IDO1 [3] and no more than 1000 nM on IDO1 [4].

For the compound `O=C1CN(C(=O)c2c(F)cc(-c3ccncc3)cc2F)C(c2cccc(Br)c2)N1O` (centres unmarked) [Example 118, 2-(3-Bromophenyl)-1-[2,6-difluoro-4-(4-pyridyl)benzoyl]-3-hydroxy-imidazolidin-4-one], the IC50 is less than 5000 nM on IDO1 [3] and no more than 1000 nM at IDO1 [4].

Consider `Cn1cc(-c2cc(F)c(C(=O)N3CC(=O)N(O)C3c3cccc(Br)c3)c(F)c2)cn1` (centres unmarked) [Example 119, 2-(3-Bromophenyl)-1-[2,6-difluoro-4-(1-methylpyrazol-4-yl)benzoyl]-3-hydroxy-imidazolidin-4-one], for which the half-inhibitory concentration (IC50) is less than 5000 nM at IDO1 [3] and no more than 1000 nM on IDO1 [4].

As to `O=C1CN(C(=O)c2c(F)cc(-c3cccs3)cc2F)C(c2cccc(Br)c2)N1O` (centres unmarked) [Example 120, 2-(3-Bromophenyl)-1-[2,6-difluoro-4-(2-thienyl)benzoyl]-3-hydroxy-imidazolidin-4-one], the IC50 on IDO1 [3] was less than 5000 nM; on IDO1 [4] it was no more than 1000 nM.

For the compound `O=C1CN(Cc2ccccc2F)C(c2cccc(I)c2)N1O` (centres unmarked) [Example 124, 1-[(2-Fluorophenyl)methyl]-3-hydroxy-2-(3-iodophenyl)imidazolidin-4-one], the IC50 is less than 5000 nM at IDO1 [3] and no more than 1000 nM at IDO1 [4].

For the compound `O=C1CN(Cc2ccccc2F)C(c2cccc(Br)c2)N1O` (centres unmarked) [Example 125, 2-(3-Bromophenyl)-1-[(2-fluorophenyl)methyl]-3-hydroxy-imidazolidin-4-one], the IC50 was less than 5000 nM at IDO1 [3] and no more than 1000 nM at IDO1 [4].

For `O=C1CN(Cc2c(F)cccc2F)C(c2cccc(Br)c2)N1O` (centres unmarked) [Example 127, 2-(3-Bromophenyl)-1-[(2,6-difluorophenyl)methyl]-3-hydroxy-imidazolidin-4-one], the half-inhibitory concentration (IC50) on IDO1 [3] is less than 5000 nM; at IDO1 [4] it was no more than 1000 nM.

Consider `C=Cc1cccc(C2N(O)C(=O)CN2C(=O)c2c(F)cccc2F)c1` (centres unmarked) [Example 129, 1-(2,6-Difluorobenzoyl)-3-hydroxy-2-(3-vinylphenyl)imidazolidin-4-one], for which the results for the IC50 at IDO1 [3] and at IDO1 [4] were less than 5000 nM and no more than 1000 nM, respectively.

Take `COCCNC(=O)c1cc(F)c(C(=O)N2CC(=O)N(O)C2c2cccc(Br)c2)c(F)c1` (centres unmarked) [Example 137, 4-[2-(3-Bromophenyl)-3-hydroxy-4-oxo-imidazolidine-1-carbonyl]-3,5-difluoro-N-(2-methoxyethyl)benzamide]: the IC50 on IDO1 [3] was less than 5000 nM; at IDO1 [4] it was no more than 1000 nM.

Take `COCCNC(=O)c1c(Br)cc(F)c(C(=O)N2CC(=O)N(O)C2c2cccc(Br)c2)c1F` (centres unmarked) [Example 138, 6-Bromo-3-[2-(3-bromophenyl)-3-hydroxy-4-oxo-imidazolidine-1-carbonyl]-2,4-difluoro-N-(2-methoxyethyl)benzamide]: the IC50 at IDO1 [3] was less than 5000 nM; on IDO1 [4], no more than 1000 nM.

With `N[C@@H](Cc1c[nH]c2ccccc12)C(=O)O` [L-tryptophan], the Michaelis constant (Km) is 190 µM at TDO and 6 µM at IDO1 [5].

Take `Nc1nonc1C(=NO)Nc1ccc(F)c(Cl)c1` [compound 51, 4-amino-N-(3-chloro-4-fluorophenyl)-N′-hydroxy-1,2,5-oxadiazole-3-carboximidamide]: the “inhibition of TDO activity in biochemical assays” value in assay [6] is listed as “inhibit the activity of tryptophan 2,3-dioxygenase (TDO)”. Moreover, in the assay with melanoma, the “tumor growth in mouse model for melanoma” value is “reduction of tumor growth”.
